Counter-ions that a name gives are not always drawn.
What was measured:
[1] = target: T1, [3H]serotonin re-uptake in synaptosome (Rattus norvegicus, UniProt P31652); assay: Inhibition of serotonin reuptake in rat cerebral cortex synaptosome; assay type: biochemical; conditions: Ki calculated from IC50 and Kd, read-out: Serotonin Reuptake Inhibiting Activity, Ki value
T1 construct: to give a synaptosome solution; from tissue; host or cells: rat cerebral cortex synaptosomes (male SD rats)
Method: (§1) Experiments for Inhibition of Serotonin Reuptake and Experiments for Inhibition of Norepinephrine Reuptake
(§2) Cerebral cortex of male SD rats (JAPAN SLC Inc.), over six weeks of age was excised and a 0.32M sucrose solution was added thereto in an amount of 10 mL per gram of the cerebral cortex followed by homogenizing. The homogenized solution was centrifuged, the supernatant thereof was further centrifuged at high speed and, to the resulting pellets, a PSS solution (pH 7.4; comprising 150 mM of NaCl, 4 mM of KCl, 1 mM of MgCl2, 2.5 mM of HEPES, 0.9 mg/mL of glucose, 0.176 mg/mL of ascorbic acid and 1 mM of pargylin) was added in an amount of 10 mL per gram of the pellets to give a synaptosome solution. A compound to be tested (100 μL) was added to 100 μL of the synaptosome solution and 700 μL of a 50 mM Tris buffer (pH 7.4; trihydroxylaminomethane) followed by subjecting to pre-incubation at 37° C. for 5 minutes. After the pre-incubation, 100 μL of [^3H]serotonin or [^3H]norepinephrine diluted to 10 nM and 20 nM, respectively, with a Tris buffer was added thereto followed by incubating at 37° C. for 5 minutes.
(§3) Synaptosome was recovered on a GF/B filter using a cell harvester and further washed three times using a washing solution (50 mM Tris buffer; pH 7.4; 4° C.). The filter was transferred to a vial, a scintillator was added thereto and the radiation activity was measured using a liquid scintillation counter.
(§4) Incidentally, the non-specific reaction was defined as the radiation activity under ice-cooling (4° C.) and the difference between the total radiation activity and the radiation activity under the non-specific reaction was adopted as the radiation activity specifically re-uptaken in the synaptosome. IC50 value was determined from the re-uptake inhibition rate in the presence of a test compound and, from IC50 value and the Kd value of [^3H]serotonin or [^3H]norepinephrine, Ki value of the test compound showing a re-uptake inhibiting activity of serotonin or norepinephrine, respectively, was calculated.

[2] = target: T2, [3H]norepinephrine re-uptake in synaptosome (Rattus norvegicus, UniProt Q9WTR4); assay: Inhibition of norepinephrine reuptake in rat cerebral cortex synaptosome; assay type: biochemical; conditions: Ki calculated from IC50 and Kd, read-out: Norepinephrine Reuptake Inhibiting Activity, Ki value
T2 construct: to give a synaptosome solution; from tissue; host or cells: rat cerebral cortex synaptosomes (male SD rats)
Method: as §1, §2, §3, §4

rats under anesthesia = assay: Measurement of urine leak point pressure in rats under anesthesia; assay type: in vivo, rat; conditions: intravenous administration of not more than 10 mg/kg; female rats, urethane anesthesia, thoracic spine cut at T8 to T9
Method: Measurement of Urine Leak Point Pressure in Rats Under Anesthesia Under anesthesia with urethane (1.2 g/kg; subcutaneous administration), the thoracic spine of female rats of 8 to 12 weeks of age (Japan SLC Inc.) was cut at the level of T8 to T9 so that the micturition reflex was made to disappear, then the abdomen was subjected to a median incision to expose the bladder and then a cannula was inserted into the bladder. An appropriate amount (ca. 0.4 mL) of a physiological saline was previously infused into the bladder, both sides of the bladder were gradually pressed with two cotton buds and the inner pressure of the bladder when the physiological saline solution leaked out from the urethral orifice was measured as a pressure upon leakage of urine. The measurement was repeated several times until the measured values became stable and, after that, the test compound was intravenously administered and a pharmacological effect of the test compound was evaluated.

T1 sequence (P31652 whole entry): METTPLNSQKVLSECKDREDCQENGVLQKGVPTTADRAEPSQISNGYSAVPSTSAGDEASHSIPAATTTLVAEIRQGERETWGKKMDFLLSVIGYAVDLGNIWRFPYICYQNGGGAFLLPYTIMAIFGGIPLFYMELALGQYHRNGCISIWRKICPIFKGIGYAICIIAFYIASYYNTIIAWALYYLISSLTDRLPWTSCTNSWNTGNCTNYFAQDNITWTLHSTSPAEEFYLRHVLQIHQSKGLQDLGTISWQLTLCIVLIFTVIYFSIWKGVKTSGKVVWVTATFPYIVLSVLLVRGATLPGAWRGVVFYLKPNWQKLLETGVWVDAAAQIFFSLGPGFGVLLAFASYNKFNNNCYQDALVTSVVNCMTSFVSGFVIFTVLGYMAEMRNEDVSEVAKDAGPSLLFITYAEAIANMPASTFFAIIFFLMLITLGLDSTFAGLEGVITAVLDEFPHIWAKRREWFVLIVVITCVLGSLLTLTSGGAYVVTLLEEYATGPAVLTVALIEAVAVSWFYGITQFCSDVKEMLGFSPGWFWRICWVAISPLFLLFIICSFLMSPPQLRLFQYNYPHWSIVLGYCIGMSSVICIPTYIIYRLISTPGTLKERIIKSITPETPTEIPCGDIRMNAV
T2 sequence (Q9WTR4 1-597): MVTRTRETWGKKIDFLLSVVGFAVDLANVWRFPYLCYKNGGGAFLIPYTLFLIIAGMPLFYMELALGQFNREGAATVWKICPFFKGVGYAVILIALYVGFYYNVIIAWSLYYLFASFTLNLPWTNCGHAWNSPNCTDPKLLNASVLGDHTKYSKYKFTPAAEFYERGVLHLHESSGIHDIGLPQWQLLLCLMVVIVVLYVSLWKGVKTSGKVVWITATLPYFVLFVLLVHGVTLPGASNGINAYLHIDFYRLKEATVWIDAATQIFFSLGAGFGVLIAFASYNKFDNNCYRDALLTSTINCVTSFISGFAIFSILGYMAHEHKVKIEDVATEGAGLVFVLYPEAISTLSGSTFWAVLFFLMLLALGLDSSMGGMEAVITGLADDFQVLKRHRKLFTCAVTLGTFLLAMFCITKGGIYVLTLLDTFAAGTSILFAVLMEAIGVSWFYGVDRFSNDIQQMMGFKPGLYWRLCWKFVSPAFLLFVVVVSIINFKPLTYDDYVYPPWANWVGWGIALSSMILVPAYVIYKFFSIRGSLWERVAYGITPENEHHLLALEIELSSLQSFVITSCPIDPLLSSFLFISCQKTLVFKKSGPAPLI

| SMILES | Ki [1] | Ki [2] | leak point pressure (pressure upon leakage of urine) (rats under anesthesia) |
| --- | --- | --- | --- |
| Cc1cc2c(o1)CN(C)CCC2Oc1cccc2ccccc12 (stereo not shown) [Example 140, 2,7-Dimethyl-4-(naphthalen-1-yloxy)-5,6,7,8-tetrahydro-4H-furo[2,3-c]azepine] | 4.1 nM | 8.4 nM |  |
| CN1CCC(Oc2ccc(Cl)c(Cl)c2)c2sccc2C1 (stereo not shown) [Example 108, 8-(3,4-Dichlorophenyloxy)-5-methyl-5,6,7,8-tetrahydro-4H-thieno[3,2-c]azepine hydrochloride] | 1.7 nM | 64.4 nM |  |
| CN1CCC(Oc2cccc(Cl)c2Cl)c2ccsc2C1 (stereo not shown) [Example 149, 4-(2,3-Dichlorophenyloxy)-7-methyl-5,6,7,8-tetrahydro-4H-thieno[2,3-c]azepine hydrochloride] | 1.8 nM | 1.7 nM |  |
| Cc1cc2c(o1)CN(C)CCC2Oc1cccc(Cl)c1Cl (stereo not shown) [Example 163, 4-(2,3-Dichlorophenyloxy)-2,7-dimethyl-5,6,7,8-tetrahydro-4H-furo[2,3-c]azepine] | 3.8 nM | 12 nM |  |
| Cc1cc2c(s1)CN(C)CC2Oc1ccc(Br)c(Br)c1 (stereo not shown) [Example 98, 4-(3,4-Dibromophenyloxy)-2,6-dimethyl-4,5,6,7-tetrahydrothieno[2,3-c]pyridine hydrochloride] | 8.6 nM | 455 nM |  |
| Cc1cc2c(o1)CN(C)CC2Oc1ccc(Cl)c2ccccc12 (stereo not shown) [Example 84, 4-(4-Chloronaphthalene-1-yloxy)-2,6-dimethyl-4,5,6,7-tetrahydrofuro[2,3-c]pyridine hydrochloride] | 7.9 nM | 207 nM |  |
| Cc1cc2c(s1)CN(C)CCC2Oc1cccc(Cl)c1Cl (stereo not shown) [Example 148, 4-(2,3-Dichlorophenyloxy)-2,7-dimethyl-5,6,7,8-tetrahydro-4H-thieno[2,3-c]azepine hydrochloride] | 2.1 nM | 2 nM |  |
| Cc1cc2c(o1)CN(C)CCC2Oc1cccc2ccccc12.Cl (single isomer, unassigned; (+)) [Example 401, (+)-2,7-Dimethyl-4-(naphthalen-1-yloxy)-5,6,7,8-tetrahydro-4H-furo[2,3-c]azepine hydrochloride] | 1 nM | 3.2 nM | raised the leak point pressure |
| CN1CCC(Oc2cccc(Cl)c2Cl)c2ccoc2C1.Cl (single isomer, unassigned; (+)) [Example 400, (+)-4-(2,3-Dichlorophenyloxy)-7-methyl-5,6,7,8-tetrahydro-4H-furo[2,3-c]azepine hydrochloride] | 0.5 nM | 2.4 nM | raised the leak point pressure |
| CCN1Cc2sccc2C(Oc2ccc(Cl)c(Cl)c2)C1 (stereo not shown) [Example 24, 4-(3,4-Dichlorophenyloxy)-6-ethyl-4,5,6,7-tetrahydrothieno[2,3-c]pyridine hydrochloride] | 9.5 nM | 279 nM |  |
| CN1CCc2sccc2C(Oc2cccc3ccccc23)C1 (stereo not shown) [Example 109, 6-Methyl-4-(naphthalen-1-yloxy)-5,6,7,8-tetrahydro-4H-thieno[2,3-d]azepine hydrochloride] | 8.9 nM | 66.2 nM |  |
| Cc1cc2c(s1)CN(C)CCC2Oc1ccc(Br)c(Br)c1 (stereo not shown) [Example 135, 4-(3,4-Dibromophenyloxy)-2,7-dimethyl-5,6,7,8-tetrahydro-4H-thieno[2,3-c]azepine hydrochloride] | 5.4 nM |  |  |
| CN1CCC(Oc2cccc(Cl)c2Cl)c2occc2C1 (stereo not shown) [Example 168, 8-(2,3-Dichlorophenyloxy)-5-methyl-5,6,7,8-tetrahydro-4H-furo[3,2-c]azepine] | 6.6 nM | 23.8 nM |  |
| Cc1cc2c(o1)CN(C)CCC2Oc1cccc(Br)c1Cl (stereo not shown) [Example 200, 4-(3-Bromo-2-chlorophenyloxy)-2,7-dimethyl-5,6,7,8-tetrahydro-4H-furo[2,3-c]azepine] | 1.7 nM | 21.5 nM |  |
| CN1CCC(Oc2cccc(Br)c2Cl)c2ccoc2C1.Cl (single isomer, unassigned; (+)) [Example 398, (+)-4-(3-Bromo-2-chlorophenyloxy)-7-methyl-5,6,7,8-tetrahydro-4H-furo[2,3-c]azepine hydrochloride] | 1.7 nM | 5.6 nM | raised the leak point pressure |
| CN1CCC(Oc2cccc(Br)c2Cl)c2ccoc2C1 (stereo not shown) [Example 177, 4-(3-Bromo-2-chlorophenyloxy)-7-methyl-5,6,7,8-tetrahydro-4H-furo[2,3-c]azepine] | 3.1 nM | 27.5 nM |  |
| CN1Cc2occc2C(Oc2ccc(Br)c(Cl)c2)C1 (stereo not shown) [Example 66, 4-(4-Bromo-3-chlorophenyloxy)-6-methyl-4,5,6,7-tetrahydrofuro[2,3-c]pyridine hydrochloride] | 3.9 nM | 484 nM |  |
| CN1CCC(Oc2ccc(Cl)c3ccccc23)c2sccc2C1 (stereo not shown) [Example 115, 8-(4-Chloronaphthalen-1-yloxy)-5-methyl-5,6,7,8-tetrahydro-4H-thieno[3,2-c]azepine hydrochloride] | 1.2 nM | 70.7 nM |  |
| CN1CCC(Oc2ccc(C(N)=O)cc2Cl)c2ccoc2C1 (stereo not shown) [Example 225, 4-(2-Chloro-4-carbamoylphenyloxy)-7-methyl-5,6,7,8-tetrahydro-4H-furo[2,3-c]azepine hydrochloride] | 18.3 nM | 11.7 nM |  |
| CN1Cc2occc2C(Oc2ccc(Cl)c(Cl)c2)C1.Cl (stereo not shown) [Example 21, 4-(3,4-Dichlorophenyloxy)-6-methyl-4,5,6,7-tetrahydrofuro[2,3-c]pyridine hydrochloride] |  |  | raised the leak point pressure |
| CN1CCC(Oc2cccc(Cl)c2Cl)c2ccoc2C1 (stereo not shown) [Example 213, 4-(2,3-Dichlorophenyloxy)-7-methyl-5,6,7,8-tetrahydro-4H-furo[2,3-c]azepine hydrochloride] | 0.9 nM | 4.1 nM |  |
| Cc1cc2c(o1)CN(C)CC2Oc1ccc(Cl)c(Cl)c1 (stereo not shown) [Example 57, 4-(3,4-Dichlorophenyloxy)-2,6-dimethyl-4,5,6,7-tetrahydrofuro[2,3-c]pyridine hydrochloride] | 14.1 nM | 244 nM |  |
| CN1CCC(Oc2cccc3ccccc23)c2occc2C1 (stereo not shown) [Example 157, 5-Methyl-8-(naphthalen-1-yloxy)-5,6,7,8-tetrahydro-4H-furo[3,2-c]azepine] | 6.8 nM | 57.5 nM |  |
| CN1CCC(Oc2cccc3ccccc23)c2ccoc2C1 (stereo not shown) [Example 179, 7-Methyl-4-(naphthalen-1-yloxy)-5,6,7,8-tetrahydro-4H-furo[2,3-c]azepine hydrochloride] | 1 nM | 24.4 nM |  |
| CN1Cc2ccsc2C(Oc2cccc3ccccc23)C1 (stereo not shown) [Example 2, 5-Methyl-7-(naphthalen-1-yloxy)-4,5,6,7-tetrahydrothieno[3,2-c]pyridine] | 27.2 nM | 478 nM |  |
| Cc1cc2c(s1)CN(C)CCC2Oc1ccc(C(F)(F)F)cc1.Cl (stereo not shown) [Example 133, 2,7-dimethyl-4-[4-(trifluoromethyl)phenyloxy]-5,6,7,8-tetrahydro-4H-thieno[2,3-c]azepine hydrochloride] |  |  | raised the leak point pressure |
| Cc1cc2c(s1)CN(C)CCC2Oc1cccc2ccccc12.Cl (stereo not shown) [Example 102, 2,7-Dimethyl-4-(naphthalen-1-yloxy)-5,6,7,8-tetrahydro-4H-thieno[2,3-c]azepine hydrochloride] | 3.4 nM | 4 nM | raised the leak point pressure |

— US8217031B2, “Heteroaryl derivatives” (Nippon Shinyaku Co., Ltd., priority 2007, dated 2012)
